Data: patent EP3231799A1, “4-(AZETIDIN-1-YL)PYRIMIDINE DERIVATIVES WITH ANTI-MITOTIC AND ANTI-PROLIFERATIVE ACTIVITY” (Universität Basel, priority 2016, dated 2017)
Where two headings read alike, the source gives them in different places.

Test system: A2058 melanoma cells
Assay: Mitotic arrest (microtubule binding) in A2058 melanoma cells, high-content microscopy
Type: cell-based
Details: Homo sapiens, inhibitors 1 - 0.008 µM for 24 hours, mean value of at least four experiments
Method: Microtubule binding of compounds of formula (I) was determined in A2058 melanoma cells measuring mitotic arrest in high-throughput, high-content microscopic approaches. Microtubule networks or their depolymerization were visualized in parallel. Cellular tests are beneficial to address the biological question of tubulin binding, but also indirectly measure the uptake of a compound by cells. A hallmark of microtubule modifying agents (stabilizing or de-stabilizing) is a mitotic arrest cell cycle arrest of dividing cells, which was measured using the following protocol: • Cell preparation: 5000 A2058 cells were seeded in 100 µl complete DMEM into 96-well plates (Cell Carrier, Perkin Elmer) the day before inhibitor treatment. Cells were exposed to inhibitors (ranging from 1 - 0.008 µM) for 24 hours and fixed by addition of half a volume 10% PFA in PBS (30 min., RT). Cells were permeabilized and stained with Hoechst33324 by addition of 1:10 volume of 1%BSA/1% Triton X-100, 10 µM Hoechst33324 in PBS (30 min., RT), followed by a first image acquisition. Subsequently cells were additionally stained with rabbit anti pSer^10 Histone H3 (Cell Signaling Technologies) and rat anti-α-tubulin (Santa Cruz Technologies, overnight, 4 °C, shaking). Cells were washed and incubated with Alexa 488 conjugated goat anti rat IgG, Alexa 647 conjugated goat anti rabbit IgG antibodies (Life Technologies) and 1 µM Hoechst33324 in 1% BSA/0.1% Triton X-100/1x PBS (shaking; RT; dark), followed by 3 wash cycles and a 2nd round of imaging. • Image acquisition: Fluorescent microscopy images were acquired on an Operetta high content analysis system (Perkin Elmer). 35 fields of view/well were acquired as wide field images (20xWD objective). 1st acquisition: Nuclear DNA content and DNA morphology was imaged using the DAPI filter set. 2nd acquisition: Nuclear DNA, phosphorylated Histone H3 and α-tubulin images were acquired using DAPI, Alexa488 and Alexa647 filter sets. • Image analysis: Images were batch analysed using Columbus software (PerkinElmer). Analyses were run including single cell analysis mode. The total number of nuclei was determined in the DAPI channel. Nuclear DNA was classified into "normal" or "condensed" using a linear classifier mode. The percentage of cells with condensed DNA was calculated for each well (% condensed = (# condensed/ # total) *100). The fraction of cells with pSer10 Histone H3 positive nuclei was determined using Hoechst33342 and Alexa647 signals. 1st the nuclei were identified using DNA staining (Hoechst33342; excluding nuclei at image borders). 2nd the identified nuclei were classified positive or negative for pSer10 Histone H3 by two filters using the "filter by properties" mode based on Alexa 647 intensities. Alexa 647 filter properties were i) mean intensities above threshold /nucleus and ii) a maximum intensity above threshold. Calculation: % Alexa 647^positive = (# Alexa 647^positive / # selected nuclei) *100.
The percentage of cells with condensed DNA and the percentage of pSer10 Histone H3 positive nuclei were blotted as function of inhibitor concentration (log scale) using GraphPad Prism. Half maximal effective concentrations (EC50) of inhibitors were determined using GraphPad's "non-linear regression with variable slope" formula (Y=Bottom + (Top-Bottom)/(1+10^((LogEC50-X)*HillSlope))). Table 1: Effect of selected formula (I) compounds on mitotic arrest in A2058 cells. Half-maximal effective concentrations are given as mean value of at least four experiments for the indicated cellular phenotypes.

[1] = percentage of cells with condensed DNA, read-out: Half-maximal effective concentrations (EC50), Condensed DNA
[2] = percentage of pSer10 Histone H3 positive nuclei, read-out: Half-maximal effective concentrations (EC50), pSer10 Histone H3

For `Nc1cc(C(F)(F)F)c(-c2cc(N3CCC3)nc(N3CCOCC3)n2)cn1` [Compound 1, 5-(6-(azetidin-1-yl)-2-morpholinopyrimidin-4-yl)-4-(trifluoromethyl)pyridin-2-amine], which EC50 [1] is on record?
The EC50 was 79 nM.

What about the EC50 [2] of the same compound?
The EC50 was 80 nM.

Which EC50 [1] does the source give for `Nc1cc(C(F)(F)F)c(-c2cc(N3CC(F)(F)C3)nc(N3CCC(O)CC3)n2)cn1` [Compound 40, 1-(4-(6-amino-4-(trifluoromethyl)pyridin-3-yl)-6-(3,3-difluoroazetidin-1-yl)pyrimidin-2-yl)piperidin-4-ol] here?
The EC50 was 128 nM.

And the EC50 [2]?
The EC50 was 135 nM.

How did the EC50 [1] turn out when `Nc1cc(C(F)(F)F)c(-c2cc(N3CC(F)C3)nc(N3CCOCC3)n2)cn1` [Compound 2, 5-(6-(3-fluoroazetidin-1-yl)-2-morpholinopyrimidin-4-yl)-4-(trifluoromethyl)pyridin-2-amine] was run?
The EC50 was 71 nM.

And the EC50 [2]?
The EC50 was 151 nM.

Which results are given for `Nc1ncc(-c2cc(N3CC(F)(F)C3)nc(N3CCOCC3)n2)c(C(F)(F)F)n1` [Compound 8, 6-(3,3-difluoroazetidin-1-yl)-2-morpholino-4'-(trifluoromethyl)-[4,5'-bipyrimidin]-2'-amine]?
EC50 [1]: 70 nM; EC50 [2]: 73 nM

What does the source list for `Nc1cc(C(F)(F)F)c(-c2cc(N3CC(F)(F)C3)nc(N3CCC(=O)CC3)n2)cn1` [Compound 76, 1-(4-(6-amino-4-(trifluoromethyl)pyridin-3-yl)-6-(3,3-difluoroazetidin-1-yl)pyrimidin-2-yl)piperidin-4-one]?
EC50 [1]: 129 nM; EC50 [2]: 127 nM

Which EC50 [1] does the source give for `Nc1cc(C(F)(F)F)c(-c2cc(N3CC(F)(F)C3)nc(N3CCOCC3)n2)cn1` [Compound 4, 5-(6-(3,3-difluoroazetidin-1-yl)-2-morpholinopyrimidin-4-yl)-4-(trifluoromethyl)pyridin-2-amine] here?
Its EC50 is 65 nM.

What about the EC50 [2] of the same compound?
Its EC50 is 79 nM.

How did the EC50 [1] turn out when `CC1CN(c2cc(-c3cnc(N)cc3C(F)(F)F)nc(N3CCOCC3)n2)C1` [Compound 3, 5-(6-(3-methylazetidin-1-yl)-2-morpholinopyrimidin-4-yl)-4-(trifluoromethyl)pyridin-2-amine] was run?
Its EC50 is 92 nM.

With `C[C@@H]1COCCN1c1nc(-c2cnc(N)cc2C(F)(F)F)cc(N2CC(F)(F)C2)n1` [Compound 16, (R)-5-(6-(3,3-difluoroazetidin-1-yl)-2-(3-methylmorpholino)pyrimidin-4-yl)-4-(trifluoromethyl)pyridin-2-amine] as the compound, how does the EC50 [1] read?
Its EC50 is 111 nM.

And the EC50 [2]?
The EC50 was 115 nM.
